Experimental data from paper PMC11530122, “Mutant induced neurons and humanized mice enable identification of Niemann-Pick type C1 proteostatic therapies” (JCI Insight, 2024).

Molecular target: T1, NPC1 (Homo sapiens, UniProt O15118)
T1 construct: full-length WT human NPC1, C-terminal Strep tag, in peptidiscs
T1 sequence (O15118 23-1278): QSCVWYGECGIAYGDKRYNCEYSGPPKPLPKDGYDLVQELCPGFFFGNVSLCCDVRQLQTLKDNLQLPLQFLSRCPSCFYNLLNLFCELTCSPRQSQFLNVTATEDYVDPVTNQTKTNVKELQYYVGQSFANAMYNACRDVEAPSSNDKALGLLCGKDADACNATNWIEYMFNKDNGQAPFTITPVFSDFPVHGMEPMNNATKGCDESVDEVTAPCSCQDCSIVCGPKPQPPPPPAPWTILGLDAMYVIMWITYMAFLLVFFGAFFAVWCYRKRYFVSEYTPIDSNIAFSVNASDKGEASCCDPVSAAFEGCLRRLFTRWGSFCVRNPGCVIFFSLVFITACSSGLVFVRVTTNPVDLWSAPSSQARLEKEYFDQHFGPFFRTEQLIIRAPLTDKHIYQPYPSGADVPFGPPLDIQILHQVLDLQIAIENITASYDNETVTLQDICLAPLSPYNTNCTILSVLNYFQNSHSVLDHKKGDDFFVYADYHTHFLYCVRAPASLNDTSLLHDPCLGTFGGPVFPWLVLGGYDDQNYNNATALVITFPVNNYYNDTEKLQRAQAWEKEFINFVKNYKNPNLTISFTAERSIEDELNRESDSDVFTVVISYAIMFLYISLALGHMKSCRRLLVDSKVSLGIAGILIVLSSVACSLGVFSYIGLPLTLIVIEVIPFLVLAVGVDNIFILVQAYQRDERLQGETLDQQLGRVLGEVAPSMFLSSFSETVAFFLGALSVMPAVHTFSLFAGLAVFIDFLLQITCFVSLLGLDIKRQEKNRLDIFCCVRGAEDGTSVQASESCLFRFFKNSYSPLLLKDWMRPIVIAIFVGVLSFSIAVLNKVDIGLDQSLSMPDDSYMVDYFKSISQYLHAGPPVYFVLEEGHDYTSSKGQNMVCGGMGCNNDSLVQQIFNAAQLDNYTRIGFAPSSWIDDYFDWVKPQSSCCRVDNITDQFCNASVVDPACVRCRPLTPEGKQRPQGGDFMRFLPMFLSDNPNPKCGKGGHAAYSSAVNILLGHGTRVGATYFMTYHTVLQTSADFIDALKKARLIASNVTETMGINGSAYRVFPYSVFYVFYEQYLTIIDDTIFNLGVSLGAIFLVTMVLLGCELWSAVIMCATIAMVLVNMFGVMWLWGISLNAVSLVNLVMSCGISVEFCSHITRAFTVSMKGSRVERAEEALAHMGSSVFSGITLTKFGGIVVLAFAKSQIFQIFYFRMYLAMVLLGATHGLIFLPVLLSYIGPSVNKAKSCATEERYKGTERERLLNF
Assay: microscale thermophoresis; nanoDSF thermal stability with purified NPC1 (EC50 approximately […])
Type: binding

EC50: 177 nM
Substance: mo56-hydroxycholesterol [mo56Hc]
